Test in all cases: DiscoverX KinomeScreen competition binding assay (kinase selectivity panel)
Assay [1] has as its target T1, panel of ninety-seven kinases (Homo sapiens, UniProt P52333).
T1 construct: purchased DiscoverX; host or cells: E. coli (BL21-derived, T7 phage display) or HEK-293
As to conditions: JAK3; screened at 3000 nM. As for the experimental part:
(§1) This has been investigated by testing atropisomer A-2 for off-target activity against a panel of ninety-seven kinases distributed across the kinome at a concentration of 3 μM using the DiscoverX KinomeScreen assay. The DiscoverX KinomeScreen assay is a site-directed competition binding assay which measures the binding affinity of a compound to a kinase, by use of a solid supported control compound which can bind or capture the kinases in solution. In the absence of a kinase-inhibitor test compound, all of the kinase will bind to the solid support. If a kinase-inhibitor test compound is added to the assay mix, the amount of kinase binding to the solid support will be reduced, the extent of reduction being dependent on the potency of the test compound as a kinase inhibitor. […] For most assays, kinase-tagged T7 phage strains were grown in parallel in 24-well blocks in an E. coli host derived from the BL21 strain. E. coli were grown to log-phase and infected with T7 phage from a frozen stock (multiplicity of infection=0.4) and incubated with shaking at 32° C. until lysis (90-150 minutes). The lysates were centrifuged (6,000×g) and filtered (0.2 μm) to remove cell debris. The remaining kinases were produced in HEK-293 cells and subsequently tagged with DNA for qPCR detection. Streptavidin-coated magnetic beads were treated with biotinylated small molecule ligands for 30 minutes at room temperature to generate affinity resins for kinase assays. The liganded beads were blocked with excess biotin and washed with blocking buffer (SeaBlock (Pierce), 1% BSA, 0.05% Tween 20, 1 mM DTT) to remove unbound ligand and to reduce non-specific phage binding. […] Test compounds were prepared as 40× stocks in 100% DMSO and directly diluted into the assay. All reactions were performed in polypropylene 384-well plates in a final volume of 0.02 ml. […] The beads were then re-suspended in elution buffer (1×PBS, 0.05% Tween 20, 0.5 μM non-biotinylated affinity ligand) and incubated at room temperature with shaking for 30 minutes. The kinase concentration in the eluates was measured by qPCR. Compounds that bind the kinase active site and directly (sterically) or indirectly (allosterically) prevent kinase binding to the immobilized ligand, will reduce the amount of kinase captured on the solid support. […] The strength of binding of the test molecule to the kinase can be expressed as the percent control (% Ctrl) The compound(s) were screened at 3000 nM concentration, and results for primary screen binding interactions are reported as ‘% Ctrl’, where lower numbers indicate stronger hits in the matrix on the following page(s). [formula] • negative control=DMSO (100% Ctrl) • positive control=control compound (0% Ctrl)

The target in assay [2] is T2, panel of ninety-seven kinases (Homo sapiens, UniProt Q9UM73).
T2 construct: purchased DiscoverX; host or cells: E. coli (BL21-derived, T7 phage display) or HEK-293
The note with it: ALK; screened at 3000 nM. As to the method:
as §1

Assay [3] has as its target T3, panel of ninety-seven kinases (Homo sapiens, UniProt Q96GD4).
T3 construct: purchased DiscoverX; host or cells: E. coli (BL21-derived, T7 phage display) or HEK-293
The note with it: AURKB; screened at 3000 nM. As to the method:
as §1

Assay [4] addresses T4, panel of ninety-seven kinases (Homo sapiens, UniProt P36897).
T4 construct: purchased DiscoverX; host or cells: E. coli (BL21-derived, T7 phage display) or HEK-293
The note with it: TGFBR1; screened at 3000 nM. As for the experimental part:
as §1

For assay [5], the target named is T5, panel of ninety-seven kinases (Homo sapiens, UniProt Q9BUB5).
T5 construct: purchased DiscoverX; host or cells: E. coli (BL21-derived, T7 phage display) or HEK-293
The note with it: MKNK1; screened at 3000 nM. As to the method:
as §1

Assay [6] deals with T6, panel of ninety-seven kinases (Homo sapiens, UniProt P30530).
T6 construct: purchased DiscoverX; host or cells: E. coli (BL21-derived, T7 phage display) or HEK-293
The note with it: AXL; screened at 3000 nM. As for the experimental part: as §1

Assay [7] concerns the target T7, panel of ninety-seven kinases (Homo sapiens, UniProt Q13153).
T7 construct: purchased DiscoverX; host or cells: E. coli (BL21-derived, T7 phage display) or HEK-293
As to conditions: PAK1; screened at 3000 nM. As for the experimental part:
as §1

Assay [8] addresses T8, panel of ninety-seven kinases (Homo sapiens, UniProt P11309).
T8 construct: purchased DiscoverX; host or cells: E. coli (BL21-derived, T7 phage display) or HEK-293
The note with it: PIM1; screened at 3000 nM. As for the experimental part: as §1

The target in assay [9] is T9, panel of ninety-seven kinases (Homo sapiens, UniProt P21802).
T9 construct: purchased DiscoverX; host or cells: E. coli (BL21-derived, T7 phage display) or HEK-293
The note with it: FGFR2; screened at 3000 nM. As for the experimental part: as §1

In assay [10] the target is T10, panel of ninety-seven kinases (Homo sapiens, UniProt P43403).
T10 construct: purchased DiscoverX; host or cells: E. coli (BL21-derived, T7 phage display) or HEK-293
The note with it: ZAP70; screened at 3000 nM. As to the method:
as §1

In assay [11] the target is T11, panel of ninety-seven kinases (Homo sapiens, UniProt P80192).
T11 construct: purchased DiscoverX; host or cells: E. coli (BL21-derived, T7 phage display) or HEK-293
As to conditions: MAP3K9; screened at 3000 nM. As to the method:
as §1

For assay [12], the target named is T12, panel of ninety-seven kinases (Homo sapiens, UniProt P29317).
T12 construct: purchased DiscoverX; host or cells: E. coli (BL21-derived, T7 phage display) or HEK-293
The note with it: EPHA2; screened at 3000 nM. As for the experimental part:
as §1

Assay [13] has as its target T13, panel of ninety-seven kinases (Homo sapiens, UniProt P04629).
T13 construct: purchased DiscoverX; host or cells: E. coli (BL21-derived, T7 phage display) or HEK-293
The note with it: NTRK1; screened at 3000 nM. As to the method: as §1

The target of assay [14] is T14, panel of ninety-seven kinases (Homo sapiens, UniProt Q8IYT8).
T14 construct: purchased DiscoverX; host or cells: E. coli (BL21-derived, T7 phage display) or HEK-293
As to conditions: ULK2; screened at 3000 nM. As to the method: as §1

The target in assay [15] is T15, panel of ninety-seven kinases (Homo sapiens, UniProt Q9P1W9).
T15 construct: purchased DiscoverX; host or cells: E. coli (BL21-derived, T7 phage display) or HEK-293
As to conditions: PIM2; screened at 3000 nM. As for the experimental part:
as §1

In assay [16] the target is T16, panel of ninety-seven kinases (Homo sapiens, UniProt Q15759).
T16 construct: purchased DiscoverX; host or cells: E. coli (BL21-derived, T7 phage display) or HEK-293
The note with it: MAPK11; screened at 3000 nM. As to the method: as §1

The target in assay [17] is T17, panel of ninety-seven kinases (Homo sapiens, UniProt Q9BXA7).
T17 construct: purchased DiscoverX; host or cells: E. coli (BL21-derived, T7 phage display) or HEK-293
The note with it: TSSK1B; screened at 3000 nM. As for the experimental part: as §1

For assay [18], the target named is T18, panel of ninety-seven kinases (Homo sapiens, UniProt P17612).
T18 construct: purchased DiscoverX; host or cells: E. coli (BL21-derived, T7 phage display) or HEK-293
As to conditions: PRKACA; screened at 3000 nM. As to the method:
as §1

In assay [19] the target is T19, panel of ninety-seven kinases (Homo sapiens, UniProt Q9Y463).
T19 construct: purchased DiscoverX; host or cells: E. coli (BL21-derived, T7 phage display) or HEK-293
The note with it: DYRK1B; screened at 3000 nM. As to the method: as §1

The target of assay [20] is T20, panel of ninety-seven kinases (Homo sapiens, UniProt P50750).
T20 construct: purchased DiscoverX; host or cells: E. coli (BL21-derived, T7 phage display) or HEK-293
As to conditions: CDK9; screened at 3000 nM. As for the experimental part: as §1

The target of assay [21] is T21, panel of ninety-seven kinases (Homo sapiens, UniProt O15075).
T21 construct: purchased DiscoverX; host or cells: E. coli (BL21-derived, T7 phage display) or HEK-293
The note with it: DCLK1; screened at 3000 nM. As to the method:
as §1

Assay [22] has as its target T22, panel of ninety-seven kinases (Homo sapiens, UniProt O14757).
T22 construct: purchased DiscoverX; host or cells: E. coli (BL21-derived, T7 phage display) or HEK-293
As to conditions: CHEK1; screened at 3000 nM. As to the method:
as §1

In the case of `CN(C)CCNC(=O)c1ccc(-c2ccc(-c3ccc(Cl)cc3)n2-c2ccccc2C(F)(F)F)cc1` (single isomer, unassigned) [Atropisomer A-2], the “% Ctrl @ 3 μM” value worked out at 100 % Ctrl in [1]; 89 % Ctrl in assay [2]; 84 % Ctrl in [3]; 95 % Ctrl in assay [4]; 92 % Ctrl in [5]; 93 % Ctrl in assay [6]. Besides, the “% Ctrl @ 3 μM” value in [7] turned out to be 87 % Ctrl; in assay [8], 99 % Ctrl; in [9], 85 % Ctrl; in [10], 92 % Ctrl; in assay [11], 96 % Ctrl; in assay [12] it was 100 % Ctrl. The “% Ctrl @ 3 μM” value in [13] stood at 100 % Ctrl; in [14], 93 % Ctrl; in [15], 100 % Ctrl; in [16], 99 % Ctrl; in [17], 100 % Ctrl; in assay [18] it was 100 % Ctrl. The “% Ctrl @ 3 μM” value was 97 % Ctrl in [19], 97 % Ctrl in assay [20], 87 % Ctrl in assay [21] and 100 % Ctrl in [22].
